The values that follow are results of earlier work, collected in patent US20150190399A1, “NEW DIFFERENTIAL-RELEASE PHARMACEUTICAL COMPOSITION CONTAINING THREE ACTIVE PRINCIPLES” (LANDSTEINER SCIENTIFIC S.A. DE C.V., priority 2012, published 2015).

The conditions of this series: in vivo.

For `CCCCc1nc(Cl)c(CO)n1Cc1ccc(-c2ccccc2-c2nn[nH]n2)cc1` [Losartan potassium, losartan potassium], the half-life result is reported as “approximately 2 hours”.
